Data from ChEMBL document CHEMBL2034957, “Synthesis and antitumor evaluation of novel benzo[d]pyrrolo[2,1-b]thiazole derivatives” (Eur J Med Chem, 2012).
Activity calls are given as the source filed them. The calls are words filed in the database; no cut-off is given here.

Experiments:
CCRF-CEM [1] = test: Ratio of IC50 for human taxol-resistant CCRF-CEM cells to IC50 for human CCRF-CEM cells; assay type: functional
[2] = Cytotoxicity against human H1299 cells after 72 hrs by alamar blue assay; assay type: functional, cell-based; settings: NCI-H1299, 72 h
CCRF-CEM [3] = test: Cytotoxicity against human CCRF-CEM cells after 72 hrs by XTT assay; assay type: functional, cell-based
CCRF-CEM [4] = test: Ratio of IC50 for human vinblastine-resistant CCRF-CEM cells to IC50 for human CCRF-CEM cells; assay type: functional
CCRF-CEM [5] = test: Cytotoxicity against human vinblastine-resistant CCRF-CEM cells after 72 hrs by XTT assay; assay type: functional, cell-based
[6] = Cytotoxicity against human U87 cells after 72 hrs by alamar blue assay; assay type: functional, cell-based, U-87MG ATCC; settings: U-87 MG
PC-3 = test: Cytotoxicity against human PC3 cells after 72 hrs by alamar blue assay; assay type: functional, cell-based; settings: PC-3, 72 h
[7] = Cytotoxicity against human OECM1 cells after 72 hrs by alamar blue assay; assay type: functional, cell-based; settings: OECM1, 72 h
CCRF-CEM [8] = test: Cytotoxicity against human taxol-resistant CCRF-CEM cells after 72 hrs by XTT assay; assay type: functional, cell-based
Nucleic Acid = test: Induction of Escherichia coli pEGFP-N1 DNA interstrand cross-linking at 1 to 20 uM after 2 hrs using ethidium bromide staining by alkaline agarose gel shift assay; assay type: nucleic-acid assay
HCT-116 = test: Cytotoxicity against human HCT116 cells after 72 hrs by SRB assay; assay type: functional, cell-based; settings: HCT-116, 72 h
MX1 = test: Cytotoxicity against human MX1 cells after 72 hrs by SRB assay; assay type: functional, cell-based; settings: MX1, 72 h
[9] = Cell cycle arrest in human H1299 cells assessed as accumulation of G1 phase cells at 25 uM at 48 hrs by propidium iodideee-based flow cytometry; assay type: functional; settings: NCI-H1299
[10] = Cell cycle arrest in human H1299 cells assessed as reduction in G1 phase cells at 25 uM at 24 hrs by propidium iodideee-based flow cytometry; assay type: functional; settings: NCI-H1299
Mus musculus [11] = test: Toxicity in athymic nude mouse assessed as weight loss at 30 mg/kg, iv administered q2d for 4 days; assay type: organism-based; set-up: dose 30 mg/kg, route intravenous; settings: in vivo, 96 h
Mus musculus [12] = test: Toxicity in athymic nude mouse assessed as weight loss at 10 mg/kg, iv administered q2d for 4 days; assay type: organism-based; set-up: dose 10 mg/kg, route intravenous; settings: in vivo, 96 h
Mus musculus [13] = test: Toxicity in athymic nude mouse assessed as weight loss at 20 mg/kg, iv administered q2d for 3 days followed by 25 mg/kg, iv q2d for 4 days; assay type: organism-based; settings: in vivo

| Compound | Ratio IC50 (CCRF-CEM [1]) | IC50 [2] [µM] | IC50 (CCRF-CEM [3]) [µM] | Ratio IC50 (CCRF-CEM [4]) | IC50 (CCRF-CEM [5]) [µM] | IC50 [6] [µM] | IC50 (PC-3) [µM] | IC50 [7] [µM] | IC50 (CCRF-CEM [8]) [µM] | further results |
| --- | --- | --- | --- | --- | --- | --- | --- | --- | --- | --- |
| CCNC(=O)OCc1c(COC(=O)NCC)c2sc3ccccc3n2c1C1CC1 | 4.01 | 20.6 | 0.17 | 3.18 | 0.54 | 74.5 | 24.2 | 26.3 | 0.68 |  |
| OCc1c(CO)c2sc3ccccc3n2c1-c1ccc(F)c(F)c1 | 1 | 21.4 | 0.19 | 1.47 | 0.28 | 17.4 | 15.2 | 8.48 | 0.19 |  |
| COc1ccc(-c2c(CO)c(CO)c3sc4ccccc4n23)cc1 | 1.9 | 9.94 | 1.13 | 2.3 | 2.63 | 18.1 | 8.81 | 5 | 2.17 | Activity (Nucleic Acid): Active |
| Cc1c(CO)c(CO)c2sc3ccccc3n12 | 1.93 |  | 0.97 | 1.91 | 1.86 |  |  |  | 1.88 | IC50 (HCT-116): 4.44 µM; IC50 (MX1): 7.1 µM |
| CC(=O)O[C@H]1C(=O)[C@@]2(C)[C@H]([C@H](OC(=O)c3ccccc3)[C@]3(O)C[C@H](OC(=O)[C@H](O)[C@@H](NC(=O)c4ccccc4)c4ccccc4)C(C)=C1C3(C)C)[C@]1(OC(C)=O)CO[C@@H]1C[C@@H]2O [PACLITAXEL] | 358 |  |  | 980 |  |  |  |  |  |  |
| CC[C@]1(O)C[C@@H]2CN(CCc3c([nH]c4ccccc34)[C@@](C(=O)OC)(c3cc4c(cc3OC)N(C)[C@H]3[C@@](O)(C(=O)OC)[C@H](OC(C)=O)[C@]5(CC)C=CCN6CC[C@]43[C@@H]65)C2)C1 [VINBLASTINE] | 106 |  |  | 680 |  |  |  |  |  |  |
| OCc1c(CO)c2sc3ccccc3n2c1-c1ccc(Cl)c(Cl)c1 |  |  | 1.04 |  |  |  |  |  |  |  |
| CCNC(=O)OCc1c(COC(=O)NCC)c2sc3ccccc3n2c1-c1ccc(F)c(Cl)c1 |  |  | 0.38 |  |  |  |  |  |  |  |
| Cc1c(COC(=O)NC(C)C)c(COC(=O)NC(C)C)c2sc3ccccc3n12 | 1.69 | 9.7 | 0.13 | 1.92 | 0.25 |  |  |  | 0.22 | IC50 (HCT-116): 0.97 µM; IC50 (MX1): 0.13 µM |
| CC(C)NC(=O)OCc1c(COC(=O)NC(C)C)c2sc3ccccc3n2c1-c1ccc(F)c(F)c1 | 0.57 | 30.8 | 0.33 | 0.9 | 0.3 | 74.9 | 29.6 | 15.1 | 0.19 | IC50 (HCT-116): 0.41 µM; IC50 (MX1): 1 µM |
| OCc1c(CO)c2sc3ccccc3n2c1-c1ccc(F)cc1 | 2.41 | 9.27 | 1.06 | 3.5 | 3.72 | 15.5 | 13.8 | 6.03 | 2.56 | IC50 (HCT-116): 9.59 µM; IC50 (MX1): 2.77 µM; Activity (Nucleic Acid): Active |
| COc1ccc(-c2c(COC(=O)NC(C)C)c(COC(=O)NC(C)C)c3sc4ccccc4n23)cc1 | 1.17 | 8.19 | 0.14 | 1.47 | 0.25 | 60.9 | 17.5 | 7.23 | 0.17 | Activity (Nucleic Acid): Active |
| CCNC(=O)OCc1c(COC(=O)NCC)c2sc3ccccc3n2c1-c1ccc(F)c(F)c1 | 1.61 | 10.3 | 0.21 | 1.47 | 0.31 | 38.5 | 19.3 | 14.6 | 0.34 | IC50 (HCT-116): 1.1 µM; IC50 (MX1): 1.49 µM |
| OCc1c(CO)c2sc3ccccc3n2c1C1CC1 | 2.37 | 13.3 | 0.97 | 2.51 | 2.44 | 28.7 | 10.7 | 7.12 | 2.31 |  |
| OCc1c(CO)c2sc3ccccc3n2c1-c1ccc(F)c(Cl)c1 |  |  | 3.09 |  |  |  |  |  |  |  |
| COc1cc(-c2c(COC(=O)NC(C)C)c(COC(=O)NC(C)C)c3sc4ccccc4n23)cc(OC)c1OC |  |  | 1.05 |  |  |  |  |  |  |  |
| CCNC(=O)OCc1c(COC(=O)NCC)c2sc3ccccc3n2c1-c1cc(OC)c(OC)c(OC)c1 |  |  | 0.32 |  |  |  |  |  |  |  |
| CCNC(=O)OCc1c(COC(=O)NCC)c2sc3ccccc3n2c1-c1ccc(Cl)c(Cl)c1 |  |  | 0.38 |  |  |  |  |  |  |  |
| COc1cc(-c2c(CO)c(CO)c3sc4ccccc4n23)cc(OC)c1OC |  |  | 4.03 |  |  |  |  |  |  |  |
| OCc1c(CO)c2sc3ccccc3n2c1-c1ccc(Cl)cc1 | 2 | 12.4 | 2.61 | 1.56 | 4.09 | 20.7 | 20.4 | 14.6 | 5.22 | Activity [9]: Active; Activity [10]: Active; IC50 (HCT-116): 9.26 µM; IC50 (MX1): 10.4 µM; Activity (Nucleic Acid): Active |
| CCNC(=O)OCc1c(COC(=O)NCC)c2sc3ccccc3n2c1C | 1.3 |  | 0.33 | 1.3 | 0.43 |  |  |  | 0.45 |  |
| COc1ccc(-c2c(CO)c(CO)c3sc4ccccc4n23)cc1OC |  |  | 1.82 |  |  |  |  |  |  |  |
| CC(C)NC(=O)OCc1c(COC(=O)NC(C)C)c2sc3ccccc3n2c1-c1ccc(Cl)c(Cl)c1 |  |  | 2.29 |  |  |  |  |  |  |  |
| CCNC(=O)OCc1c(COC(=O)NCC)c2sc3ccccc3n2c1-c1ccc(OC)c(OC)c1 |  |  | 0.49 |  |  |  |  |  |  |  |
| CC(C)NC(=O)OCc1c(COC(=O)NC(C)C)c2sc3ccccc3n2c1-c1ccc(F)c(Cl)c1 |  |  | 0.5 |  |  |  |  |  |  |  |
| COc1ccc(-c2c(COC(=O)NC(C)C)c(COC(=O)NC(C)C)c3sc4ccccc4n23)cc1OC |  |  | 0.11 |  |  |  |  |  |  |  |
| CCNC(=O)OCc1c(COC(=O)NCC)c2sc3ccccc3n2c1-c1ccc(OC)cc1 | 1.9 | 8.85 | 0.19 | 2.2 | 0.42 | 29.5 | 17.9 | 9.39 | 0.37 | Activity (Nucleic Acid): Active |
| CC(C)NC(=O)OCc1c(COC(=O)NC(C)C)c2sc3ccccc3n2c1C1CC1 | 7.3 | 20.4 | 0.1 | 9 | 0.9 | 45.5 | 13.4 | 9.67 | 0.73 |  |
| CC(C)NC(=O)OCc1c(COC(=O)NC(C)C)c2sc3ccccc3n2c1-c1ccc(F)cc1 | 3.2 | 33 | 0.05 | 3.8 | 0.19 | 53.5 | 24.2 | 11.9 | 0.16 | Activity (Mus musculus [11]): 20%; IC50 (HCT-116): 0.35 µM; IC50 (MX1): 0.62 µM; Activity (Mus musculus [12]): 20%; Activity (Mus musculus [13]): 20%; Activity (Nucleic Acid): Active |
